Molecules are shown by their SMILES.

A short description of this data set: water solubility of the compound of Formula 1. Type of data set: physicochemical. As to the method: However, the compound has a very low water solubility (0.02 mg/ml, pH 6.8), which increases (0.7 mg/ml, pH 3.0) under acid conditions, but not enough to have a significant effect. It is water insoluble and has a very low solubility, in particular, under neutral or higher pH environments, so it has a much difficulty in being formulated into preparations through its dissolution and stabilization in aqueous solutions. Also, its degradation products are increased under acid conditions, thus leading to poor stability and causing a restriction on selection of salts. Furthermore, in case of using solubilizers such as surfactants, etc., to improve the solubility, it requires an excessive amount of excipients, thus causing difficulty.

Regarding `Cc1nc2c(O[C@H]3CCOc4cc(F)cc(F)c43)cc(C(=O)N(C)C)cc2[nH]1` [Formula 1, (S)-4-((5,7-difluorochroman-4-yl)oxy)-N,N-2-trimethyl-1H-benzo[d]imidazole-6-carboxamide], the solubility (commonly how much of the substance goes into solution per volume) reads like this: (aqueous buffer, pH 3.0, acid conditions) 700 µg/mL; (pH 6.8, aqueous buffer) 20 µg/mL.

Values taken from US10828253B2, “Composition for injection” (HK INNO.N CORPORATION, priority 2017, dated 2020).
